Laboratory results from patent publication US11564913B2, “Compositions and methods for treating cancer” (Children's Hospital Medical Center, priority 2019, dated 2023).

How the values were obtained:
[1] = tested on: Vav3−/− p190-BCR-ABL1 BM leukemic cells expressing full-length Vav3; assay: Vav3 rescue, cell cycle analysis; format: cell-based, murine; details: 10 μM, 18 h
Excerpt: (§1) FIG. 15: Expression of transgenic Vav3 re-sensitizes Vav3-deficient cells to IODVA1. (A) Vav3 domain structure, calponin-homology (CH), acidic region (Ac), Dbl-homology (DH), pleckstrin-homology (PH), zinc finger (ZF), Src-homology 2 and 3 (SH2/SH3). (B) Representative histogram data of the cell cycle analysis of wild-type (Vav3^+/+) and Vav3-deficient (Vav3^−/−) p190-BCR-ABL1 leukemic bone marrow cells expressing empty vector, full-length Vav3 or ΔCH mutant and treated with vehicle control (black) or IODVA1 at 5 (red) or 10 μM (dark grey) for 18 h. (C) Quantification of the average number of colonies made by bone marrow wild-type and Vav3^−/− p190-BCR-ABL1 leukemic bone marrow cells expressing empty vector, full-length Vav3 or ΔCH mutant and treated with vehicle control (black) or IODVA1 at 1 (light salmon), 5 (red) and 10 μM (dark grey). *** p≤0.001.
(§2) Next, we reasoned that if IODVA1 targets Vav3, rescuing Vav3^−/− leukemic cells by expressing exogenous Vav3 should re-sensitize those cells to IODVA1. We expressed full-length Vav3 or the dominant active ΔCH-mutant (FIG. 15A) in Vav3^−/− p190-BCR-ABL1-transformed murine bone marrow leukemic cells and analyzed changes in cell cycle 18 h post-treatment with vehicle control or IODVA1 (FIG. 15B). Expressing full-length Vav3 but not the empty vector re-sensitized the Vav3^−/− BM leukemic cells to IODVA1 as shown by a 5.8-fold increase in apoptosis (p=0.0005) and a 15% decrease (p=0.08) in cells in the S-phase at 10 μM.
(§3) For Vav3 rescue experiments, low density bone marrow cells from wild-type ([…]) or Vav3^−/− mice were transduced with bicistronic retroviral vector encoding p190 BCR-ABL1-IRES-YFP (yellow fluorescent protein) and YFP^+ cells were sorted 48 h post-transduction. […] Cell cycle was analyzed at 18 h post BrdU incorporation.
(§4) Cell cycle was analyzed by using in vitro incorporation of 5-Bromo-2-deoxyuridine using Brdu Flow kit (BD Pharmingen, Cat #552598). […] DNAse treatment was done according to the instructions and stained with anti BrdU and apoptosis was analyzed by 7-AAD staining through flow cytometry analysis.

[2] = tested on: Vav3−/− p190-BCR-ABL1 BM leukemic cells expressing ΔCH-mutant Vav3; assay: Vav3 rescue, cell cycle analysis; format: cell-based, murine; details: even at the highest concentration
Excerpt: as §1, §2, §3, §4

T47D cells = assay: Cell proliferation, trypan blue exclusion counting; format: cell-based; details: Homo sapiens, read-out: estimated GI50
Method: (§5) FIG. 4. IODVA1 inhibits proliferation of cancer model cells. (A) IODVA1 is a potent cell proliferation inhibitor. MCF10A, MCF7, MDA-MB-231, and T47D cells were grown in the presence of the indicated IODVA1 concentrations and counted for 4 or up to 7 days. Each dot and bar is the mean±stdev respectively, of 3 independent experiments, with 2 technical replicates in each experiment. (B) Number of colonies made by MCF7, T47D, and MDA-MB-231 cells at the indicated IODVA1 concentrations. Results shown are mean±stdev of 2 independent experiments with 4 technical replicates each. (C) IODVA1 deactivates Ras at late incubation times. […] Quantification summary of 2 independent experiments is presented in the graph. n.s.—not significant, *-p<0.05, **-p<0.01, ****-p<0.0001. (D) IODVA1 inhibits proliferation of ST8814 cells. ST8814 cells were grown in the presence of the indicated IODVA1 concentrations and counted daily for 4 days. Each dot and bar is the mean and standard deviation respectively, of 3 independent experiments.
(§6) Applicants tested IODVA1's ability to inhibit the proliferation of cells harboring activated Ras and therefore its ability to recapitulate the compound obtained from the NCI. Applicants chose the NF1-associated malignant peripheral nerve sheath tumors (MPNST) cell line ST8814, which is characterized by active wild-type Ras (Basu et al., 1992; Mahller et al., 2006) and the triple negative breast cancer cell line MDA-MB-231 carrying the oncogenic KRAS^G13D mutation (Hollestelle et al., 2007). In addition, applicants used the non-transformed mammary epithelial cell line MCF10A (RAS^WT immortalized by a spontaneous t(3;9)(3p13;9p22) translocation that deletes the CDKN2A gene, also known as p16) and the non-invasive estrogen receptor (ER) and progesterone receptor (PR) positive RAS^WT breast cancer cell line MCF7 (wild-type p53) and T47D (mutant p53). Cells were grown in growth media containing IODVA1 at concentrations between 0.1 and 10 μM or vehicle control and cell number was counted using the trypan blue exclusion method. […] Appreciable decrease in proliferation of non-transformed MCF10A cells was not observed.

MDA-MB-231 cells = assay: Cell proliferation, trypan blue exclusion counting; format: cell-based; details: Homo sapiens, read-out: estimated GI50
Method: as §5, §6

ST8814 cells = assay: Cell proliferation, trypan blue exclusion counting; format: cell-based; details: ST88-14, 96 h; day 4; read-out: 50% growth inhibitory concentration (GI50)
Method: as §5, §6

MCF10A cells = assay: Cell proliferation, trypan blue exclusion counting; format: cell-based; details: 0.1 to 10 μM
Method: as §5, §6

MCF7 cells = assay: Cell proliferation, trypan blue exclusion counting; format: cell-based; details: Homo sapiens, read-out: estimated GI50
Method: as §5, §6

Q: How did the increase in apoptosis ([1]; p=0.0005) turn out when `OC1(c2ccccn2)N=C(Nc2nc3ccccc3[nH]2)N=C1c1ccccn1` (centres unmarked) [IODVA1, (Z)-2-((1H-benzo[d]imidazol-2-yl)imino)-4,5-di(pyridin-2-yl)-2,5-dihydro-1H-imidazol-5-ol] was run?
A: 5.8 fold

Q: What about the “decrease in cells in the S-phase” value ([1]; p=0.08) of the same compound?
A: 15%

Q: And the “re-sensitization to IODVA1” value [2]?
A: did not re-sensitize

Q: And the GI50 (T47D cells)?
A: ≤ 1000 nM

Q: What about the GI50 (MDA-MB-231 cells) of the same compound?
A: ≤ 1000 nM

Q: What about the GI50 (ST8814 cells) of the same compound?
A: 1000 nM

Q: And the “appreciable decrease in proliferation” value (MCF10A cells)?
A: not observed

Q: And the GI50 (MCF7 cells)?
A: ≤ 1000 nM
